From patent publication US8933224B2, “Triazine derivatives” (Pfizer Inc., priority 2013, dated 2015)

Experiments:
[1] = molecular target: human recombinant PDE10 enzyme (PDE10A) (Homo sapiens, UniProt Q9Y233); assay: PDE10 scintillation proximity assay (SPA), inhibition of human recombinant PDE10 enzyme activity; type: biochemical; settings: geometric mean of 2-4 determinations unless otherwise indicated (b: ≧5 determinations; c: single determination)
Method: PDE10 activity was measured using a scintillation assay (SPA-based method) similar to that previously described by Seeger, T. F. et al., Brain Research 985 (2003) 113-126. The compounds' relative activity as PDE10 inhibitors was investigated by assaying a fixed amount of enzyme in the presence of the test compound and low substrate concentration (cAMP) such that an IC50 could be determined. […] The assay is performed in a 384-well format with 50 μL assay buffer (50 mM TRIS pH 7.5; 1.3 mM MgCl2; 0.01% Brij) containing enough PDE10 to convert ˜20% of 20 nM ^3H-cAMP, and a range of inhibitors. Reactions are incubated for 30 minutes at 25° C. The addition of 20 μL of 8 mg/ml yttrium silicate SPA beads (PerkinElmer) stops the reaction. The plates are sealed (TopSeal, PerkinElmer) and the beads are allowed to settle for 8 hrs, after which they are read on the Trilux Microbeta overnight. ^1Rat enzyme preparation:^2Human enzyme preparation:
Human PDE10A coding sequence (amino acids 21 to 797 from the sequence with accession number NP_001124162.1) was synthesized using codon optimization for insect expression and cloned into the baculovirus expression vector pFastBac (Invitrogen) engineered to include a N-terminal His6 affinity tag to aid in purification as described in Seeger, T. F. et al., Brain Research 985 (2003) 113-126. The recombinant Bacmid was isolated and used to transfect sf9 insect cells to generate a viral stock. To generate cell paste for purification, sf21 cells were infected with the virus stock and cells were harvested 72 hours after infection as described in Seeger, T. F. et al., Brain Research 985 (2003) 113-126. Insect cell paste was lysed and after centrifugation, the supernatant was chromatographed on Ni-NTA agarose (Qiagen) as described in Seeger, T. F. et al., Brain Research 985 (2003) 113-126. Ni-NTA agarose eluting fractions containing PDE10A were chromatographed on Superdex 200 (GE Healthcare Life Sciences) in 50 mM Tris HCl pH 7.5, 150 mM NaCl, 1 mM EDTA, 10% glycerol, 2 mM TCEP, 1.5 mM benzamidine, EDTA-free protease inhibitors (Roche), and 5 μM E-64.

[2] = molecular target: rat PDE10 enzyme (Rattus norvegicus (Rat), UniProt Q9QYJ6); assay: PDE10 scintillation proximity assay (SPA), inhibition of rat PDE10 enzyme activity; type: biochemical; settings: geometric mean of 2-4 determinations unless otherwise indicated (b: ≧5 determinations; c: single determination)
Summary of the method: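 SPA with fixed recombinant PDE10 (Sf21-expressed, Ni-NTA and Mono Q purified) converting ~20% of 20 nM ³H-cAMP in 50 mM TRIS pH 7.5, 1.3 mM MgCl2, 0.01% Brij, across an inhibitor range.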

Chain of rat PDE10 enzyme (Q9QYJ6 24-794): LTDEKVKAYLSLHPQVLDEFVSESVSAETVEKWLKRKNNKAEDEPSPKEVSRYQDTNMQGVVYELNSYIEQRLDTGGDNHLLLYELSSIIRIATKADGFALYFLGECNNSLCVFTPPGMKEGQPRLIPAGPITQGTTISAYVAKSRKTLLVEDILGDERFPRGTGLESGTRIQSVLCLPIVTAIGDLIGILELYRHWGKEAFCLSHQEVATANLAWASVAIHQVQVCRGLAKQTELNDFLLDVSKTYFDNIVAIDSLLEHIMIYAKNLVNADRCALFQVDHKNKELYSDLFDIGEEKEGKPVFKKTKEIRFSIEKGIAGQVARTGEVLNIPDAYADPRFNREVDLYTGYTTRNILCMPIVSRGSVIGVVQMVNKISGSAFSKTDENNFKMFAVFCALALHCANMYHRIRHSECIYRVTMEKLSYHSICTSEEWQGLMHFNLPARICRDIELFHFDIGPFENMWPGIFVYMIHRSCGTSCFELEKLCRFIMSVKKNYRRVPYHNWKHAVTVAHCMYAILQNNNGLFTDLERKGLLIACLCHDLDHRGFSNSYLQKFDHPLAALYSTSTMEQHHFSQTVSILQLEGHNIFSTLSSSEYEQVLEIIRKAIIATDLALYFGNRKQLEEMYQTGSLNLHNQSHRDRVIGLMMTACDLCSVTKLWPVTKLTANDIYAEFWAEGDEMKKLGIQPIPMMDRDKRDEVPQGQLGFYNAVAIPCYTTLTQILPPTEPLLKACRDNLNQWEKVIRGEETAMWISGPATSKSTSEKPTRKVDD

| SMILES | IC50 [1] [nM] | IC50 [2] [nM] |
| --- | --- | --- |
| Cc1nc([C@H]2CCOC2)c2c(N3CCc4c(c(C(C)C)nn4C)C3)ncnn12 [Example 85, 7-methyl-4-{1-methyl-3-(propan-2-yl)-1,4,6,7-tetrahydro-5H-pyrazolo[4,3-c]pyridin-5-yl]-5-[(3R)-tetrahydrofuran-3-yl]imidazo[5,1-f][1,2,4]triazine] | 0.182 | 0.556 |
| Cc1nc([C@H]2CCCO2)c2c(N3CCc4cnn(C)c4C3)ncnn12 (single isomer, unassigned) [Example 13] | 7.59 |  |
| Cc1nc(-c2ccccc2F)c2c(N3CCc4nc(C5CC5)n(C)c(=O)c4C3)ncnn12 [Example 142, 2-cyclopropyl-6-[5-(2-fluorophenyl)-7-methylimidazo[5,1-f][1,2,4]triazin-4-yl]-3-methyl-5,6,7,8-tetrahydropyrido[4,3-d]pyrimidin-4(3H)-one] | 1.31 |  |
| Cc1nc(-c2ccccc2F)c2c(N3CCc4nc(C5CC5)nc(OC(F)F)c4C3)ncnn12 [Example 140, 2-cyclopropyl-4-(difluoromethoxy)-6-[5-(2-fluorophenyl)-7-methylimidazo[5,1-f][1,2,4]triazin-4-yl]-5,6,7,8-tetrahydropyrido[4,3-d]pyrimidine] |  | 1.5 |
| Cc1nc([C@@H]2CCOC2)c2c(N3CCc4nc(C5CC5)ncc4C3)ncnn12 [Example 16, 2-cyclopropyl-6-{7-methyl-5-[(3S)-tetrahydrofuran-3-yl]imidazo{5,1-f][1,2,4]triazin-4-yl}-5,6,7,8-tetrahydropyrido[4,3-d]pyrimidine] |  | 6.55 |
| Cc1ccc2c(n1)CCN(c1ncnn3c(C)nc(-c4ccccc4F)c13)C2 [Example 138, 6-[5-(2-fluorophenyl)-7-methylimidazo[5,1-f][1,2,4]triazin-4-yl]-2-methyl-5,6,7,8-tetrahydro-1,6-naphthyridine] |  | 0.49 |
| Cc1nc2c(c(=O)n1C)CN(c1ncnn3c(C)nc(-c4ccccc4F)c13)CC2 [Example 124, 6-[5-(2-fluorophenyl)-7-methylimidazo[5,1-f][1,2,4]triazin-4-yl]-2,3-dimethyl-5,6,7,8-tetrahydropyrido[4,3-d]pyrimidin-4(3H)-one] |  | 2.71 |
| CCc1nn(C)c2c1CN(c1ncnn3c(C)nc(C4CCOCC4)c13)CC2 [Example 106, 4-(3-ethyl-1-methyl-1,4,6,7-tetrahydro-5H-pyrazolo[4,3-c]pyridin-5-yl)-7-methyl-5-(tetrahydro-2H-pyran-4-yl)imidazo[5,1-f][1,2,4]triazine] |  | 1.44 |
| Cc1nc([C@@H]2CCOC2)c2c(N3CCc4noc(C(C)C)c4C3)ncnn12 [Example 30, 7-methyl-4[3-(propan-2-yl)-6,7-dihydro[1,2]oxazolo[4,3-c]pyridin-5(4H)-yl]-5-[(3S)-tetrahydrofuran-3-yl]imidazo[5,1-f][1,2,4]triazine] |  | 3.52 |
| Cc1nc2c(c(OC(F)F)n1)CN(c1ncnn3c(C)nc([C@@H]4CCOC4)c13)CC2 [Example 36, 4-(difluoromethoxy)-2-methyl-6-{7-methyl-5-[(3S)-tetrahydrofuran-3-yl]imidazo[5,1-f][1,2,4]triazin-4-yl}-5,6,7,8-tetrahydropyrido[4,3-d]pyrimidine] |  | 0.44 |
| CCc1nn(C)c2c1CN(c1ncnn3c(C)nc(CC(C)C)c13)CC2 [Example 48, 4-(3-ethyl-1-methyl-1,4,6,7-tetrahydro-5H-pyrazolo[4,3-c]pyridin-5-yl)-5-isobutyl-7-methylimidazo[5,1-f][1,2,4]triazine] |  | < 1 |
| Cc1nc(-c2ccc(F)cc2Cl)c2c(N3CCc4nc(C5CC5)ncc4C3)ncnn12 [Example 7, 6-[5-(2-Chloro-4-fluorophenyl)-7-methylimidazo[5,1-f][1,2,4]triazin-4-yl]-2-cyclopropyl-5,6,7,8-tetrahydropyrido[4,3-d]pyrimidine] |  | 8.44 |
| COc1cc2c(cc1OC)CN(c1ncnn3c(C)nc([C@H]4CCCO4)c13)CC2 [Example 82, 6,7-dimethoxy-2-{7-methyl-5-[(2R)-tetrahydrofuran-2-yl]imidazo[5,1-f][1,2,4]triazin-4-yl}-1,2,3,4-tetrahydroisoquinoline] |  | 37.2 |
| COc1cc2c(cc1OC)CN(c1ncnn3c(C)nc(C4CCCO4)c13)CC2 (stereo not shown) [Example 77, 6,7-dimethoxy-2-[7-methyl-5-(tetrahydrofuran-2-yl)imidazo[5,1-f][1,2,4]triazin-4-yl]-1,2,3,4-tetrahydroisoquinoline] |  | 30 |
| [2H]C([2H])([2H])Oc1nc(C2CC2)nc2c1CN(c1ncnn3c(C)nc([C@@H]4CCOC4)c13)CC2 [Example 173] |  | 0.136 |
| COc1cc2c(cc1OC)CN(c1ncnn3c(C)nc([C@H]4CCOC4)c13)CC2 [Example 14, 6,7-dimethoxy-2-{7-methyl-5-[(3R)-tetrahydrofuran-3-yl]imidazo[5,1-f][1,2,4]triazin-4-yl}-1,2,3,4-tetrahydroisoquinoline] |  | 1.62 |
| CCn1c(C2CC2)nc2c(c1=O)CN(c1ncnn3c(C)nc([C@@H]4CCOC4)c13)CC2 [Example 150, 2-cyclopropyl-3-ethyl-6-{7-methyl-5-[(3S)-tetrahydrofuran-3-yl]imidazo[5,1-f][1,2,4]triazin-4-yl}-5,6,7,8-tetrahydropyrido[4,3-d]pyrimidin-4(3H)-one] |  | 0.0697 |
| COc1cc2c(cc1OC)CN(c1ncnn3c(C)nc([C@@H]4CCCO4)c13)CC2 [Example 83, 6,7-dimethoxy-2-{7-methyl-5-[(2S)-tetrahydrofuran-2-yl]imidazo[5,1-f][1,2,4]triazin-4-yl}-1,2,3,4-tetrahydroisoquinoline] |  | 29.7 |
| Cc1nc([C@@H]2CCOC2)c2c(N3CCc4nccnc4C3)ncnn12 [Example 171, 6-{7-methyl-5-[(3S)-tetrahydrofuran-3-yl]imidazo[5,1-f][1,2,4]triazin-4-yl}-5,6,7,8-tetrahydropyrido[3,4-b]pyrazine] |  | 2.55 |
| Cc1nc([C@@H]2CCOC2)c2c(N3CCc4nc(C5CC5)nc(O)c4C3)ncnn12 [Example 52, 2-cyclopropyl-6-{7-methyl-5-[(3S)-tetrahydrofuran-3-yl]imidazo[5,1-f][1,2,4]triazin-4-yl}-5,6,7,8-tetrahydropyrido[4,3-d]pyrimidin-4-ol] |  | 0.101 |
| Cc1nc(-c2ccccc2F)c2c(N3CCn4ncc(C(F)(F)F)c4C3)ncnn12 [Example 109, 5-(2-fluorophenyl)-7-methyl-4-[3-(trifluoromethyl)-6,7-dihydropyrazolo[1,5-a]pyrazin-5(4H)-yl]imidazo[5,1-f][1,2,4]triazine] |  | 1.73 |
| CCc1c2c(nn1C)CCN(c1ncnn3c(C)nc(-c4ccccc4F)c13)C2 [Example 112, 4(3-ethyl-2-methyl-2,4,6,7-tetrahydro-5H-pyrazolo[4,3-c]pyridin-5-yl)-5-(2-fluorophenyl)-7-methylimidazo[5,1-f][1,2,4]triazine] |  | 0.147 |
| Cc1nc([C@H]2CCOC2)c2c(N3CCc4nn(C)cc4C3)ncnn12 [Example 99, 7-methyl-4-(2-methyl-2,4,6,7-tetrahydro-5H-pyrazolo[4,3-c]pyridin-5-yl)-5-[(3R)-tetrahydrofuran-3-yl]imidazo[5,1-f][1,2,4]triazine] |  | 6.52 |
| Cc1nc([C@H]2CCOC2)c2c(N3CCc4c(cnn4C4CC4)C3)ncnn12 [Example 98, 4-(1-cyclopropyl-1,4,6,7-tetrahydro-5H-pyrazolo[4,3-c]pyridin-5-yl)-7-methyl-5-[(3R)-tetrahydrofuran-3-yl]imidazo[5,1-f][1,2,4]triazine] |  | 11.6 |
| Cc1nc([C@H]2CCOC2)c2c(N3CCc4nn(C5CC5)cc4C3)ncnn12 [Example 26, 4-(2-cyclopropyl-2,4,6,7-tetrahydro-5H-pyrazolo[4,3-c]pyridin-5-yl)-7-methyl-5-[(3R)-tetrahydrofuran-3-yl]imidazo[5,1-f][1,2,4]triazine] |  | < 2.26 |
| CCOc1nc(C)nc2c1CN(c1ncnn3c(C)nc(-c4ccccc4F)c13)CC2 [Example 123, 4-ethoxy-6-[5-(2-fluorophenyl)-7-methylimidazo[5,1-f][1,2,4]triazin-4-yl]-2-methyl-5,6,7,8-tetrahydropyrido[4,3-d]pyrimidine] |  | 1.43 |
| Cc1nc([C@H]2CCOC2)c2c(N3CCc4nc(C5CC5)ncc4C3)ncnn12 [Example 56, 2-cyclopropyl-6-{7-methyl-5-[(3R)-tetrahydrofuran-3-yl]imidazo[5,1-f][1,2,4]triazin-4-yl}-5,6,7,8-tetrahydropyrido[4,3-d]pyrimidine] |  | 5.34 |
